Assay results: US20230129034A1, “TREATMENT OF DISEASE WITH ESTERS OF SELECTIVE RXR AGONISTS” (Io Therapeutics, Inc., priority 2017, published 2023)
“Also recorded” adds a separate entry of the source.

Key:
[1] = tested on: oligodendrocyte precursor cells (OPCs); assay: Oligodendrocyte precursor cell differentiation (PLP-EGFP OPCs); assay type: cell-based, mouse; settings: for OPC differentiation into oligodendrocytes (EGFP positive cells): compared to negative control (DMSO)
From the text: OPCs were generated from a neurosphere culture of E14.5 PLP-EGFP (on C57BL/6J background) mouse brains. […] The EGFP expressing cells were quantified with Cellomics Neuronal Profiling Algorithm.
The EGFP expressing cells in controls and all compounds were quantified with Cellomics Neuronal Profiling Algorithm.

RXRβ = target: T1, RXRβ (Homo sapiens, UniProt P28702); assay: RXR homodimer transactivation assay (rCRBPII/RXRE-tk-Luc reporter, CV-1 cells); assay type: cell-based
T1 construct: an expression construct including a full length RXRα, RXRβ, or RXRy; expressed in transfected cells; host or cells: CV-1
T1 sequence (P28702 1-533): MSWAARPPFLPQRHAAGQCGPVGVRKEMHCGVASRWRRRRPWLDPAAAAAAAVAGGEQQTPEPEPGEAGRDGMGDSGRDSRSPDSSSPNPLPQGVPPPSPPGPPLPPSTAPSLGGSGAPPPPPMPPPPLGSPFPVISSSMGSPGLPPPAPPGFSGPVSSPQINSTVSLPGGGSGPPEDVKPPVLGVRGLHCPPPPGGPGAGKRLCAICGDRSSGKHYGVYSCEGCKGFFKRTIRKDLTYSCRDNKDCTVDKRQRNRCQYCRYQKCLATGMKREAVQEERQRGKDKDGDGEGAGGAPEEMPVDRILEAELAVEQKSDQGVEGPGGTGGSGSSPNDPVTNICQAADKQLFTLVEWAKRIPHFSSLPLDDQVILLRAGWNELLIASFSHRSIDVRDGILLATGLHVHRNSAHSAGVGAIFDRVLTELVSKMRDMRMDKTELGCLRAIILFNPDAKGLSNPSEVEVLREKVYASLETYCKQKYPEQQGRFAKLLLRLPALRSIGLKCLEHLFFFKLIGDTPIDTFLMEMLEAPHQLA
From the text: (§1) Data are mean values ± SE from five independent experiments.

RXRγ = target: T2, RXRγ (Homo sapiens, UniProt P48443); assay: as above; assay type: cell-based
T2 construct: an expression construct including a full length RXRα, RXRβ, or RXRy; expressed in transfected cells; host or cells: CV-1
T2 sequence (P48443 1-463): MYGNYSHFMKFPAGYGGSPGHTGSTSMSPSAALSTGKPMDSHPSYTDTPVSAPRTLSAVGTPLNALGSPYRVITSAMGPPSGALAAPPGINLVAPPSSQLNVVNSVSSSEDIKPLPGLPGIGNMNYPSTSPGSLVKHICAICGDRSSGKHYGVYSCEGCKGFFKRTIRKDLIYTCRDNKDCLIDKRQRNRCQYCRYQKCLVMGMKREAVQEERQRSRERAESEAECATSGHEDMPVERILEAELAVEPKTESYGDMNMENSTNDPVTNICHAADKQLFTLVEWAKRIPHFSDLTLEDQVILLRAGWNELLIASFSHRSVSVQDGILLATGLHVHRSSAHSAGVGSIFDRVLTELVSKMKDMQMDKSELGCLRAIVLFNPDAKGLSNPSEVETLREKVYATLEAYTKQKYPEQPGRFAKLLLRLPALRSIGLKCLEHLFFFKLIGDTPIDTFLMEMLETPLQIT
From the text: as §1

RXRα = target: T3, RXRα (Homo sapiens, UniProt P19793); assay: as above; assay type: cell-based
T3 construct: an expression construct including a full length RXRα, RXRβ, or RXRy; expressed in transfected cells; host or cells: CV-1
T3 sequence (P19793 1-462): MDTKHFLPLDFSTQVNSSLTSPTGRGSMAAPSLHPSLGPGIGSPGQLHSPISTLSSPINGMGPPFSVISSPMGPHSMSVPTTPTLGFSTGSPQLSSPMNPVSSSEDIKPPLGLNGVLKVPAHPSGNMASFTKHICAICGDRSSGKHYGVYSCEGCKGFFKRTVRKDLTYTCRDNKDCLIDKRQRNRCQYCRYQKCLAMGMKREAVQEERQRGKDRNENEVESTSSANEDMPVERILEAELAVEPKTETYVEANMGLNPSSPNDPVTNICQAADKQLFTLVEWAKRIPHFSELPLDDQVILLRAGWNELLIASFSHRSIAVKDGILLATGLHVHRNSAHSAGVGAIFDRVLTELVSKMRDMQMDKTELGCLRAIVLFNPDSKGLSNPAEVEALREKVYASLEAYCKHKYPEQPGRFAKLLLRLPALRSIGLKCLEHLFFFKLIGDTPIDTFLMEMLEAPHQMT
From the text: as §1

EAE in SJL mice = assay: EAE in SJL mice, PLP peptide induced; assay type: in vivo; settings: for symptoms of EAE in SJL mice: 50 µg i.p. every other day from day 7
Method: To determine whether a RXR agonist or an ester of a RXR agonist can attenuate multiple sclerosis, SJL mice were immunized to induce EAE by s.c. injection at the base of their spine with 200 µL of adjuvant containing 200 µg proteolipid proteins (139-151) (PLP peptide; Peptides International, Louisville, KY) and 400 µg of non-viable M. tuberculosis H37 desiccate emulsified in a mixture of incomplete Freund’s adjuvant and PBS. Mice were also given 150 ng of pertussis toxin in PBS i.p. on the same day as PLP emulsion injection and 2 days later. […] Mice were scored using the scale described in Example 6.

EAE in B6 mice = assay: EAE dose titration experiment in B6 mice with spleen and CNS cell analysis; assay type: in vivo; settings: for EAE disease overall, dose titration: 50 µg, 100 µg or 200 µg every day from day 8
Method: A dose titration experiment was also conducted in EAE mice. EAE was induced in 28 B6 mice with MOG/CFA and PT as above. Mice were scored on day 7 as indicated above and divided into groups by score so means are as equal as possible.
At the completion of the experiment, the vehicle control and 200 µg/day groups were euthanized and spleen and CNS samples obtained.

RARα = target: T4, RARα (Homo sapiens, UniProt P10276); assay: RAR transactivation assay (ER-RAR fusion, ERE-tk-Luc reporter, CV-1 cells); assay type: cell-based
T4 construct: expressed in transfected cells; host or cells: CV-1
From the text: as §1

Nurr1/RXR heterodimer = target: T5, Nurr1/RXR heterodimer (Homo sapiens, UniProt P19793); assay: Nurr1/RXR transactivation assay, COS7 cells, 3xNBRE-tk-luc; assay type: cell-based; settings: for activation of the Nurr1/RXR heterodimer: COS7 cells, 20 hr
T5 construct: full length Nurr-1 with or without full-length RXRα plasmid; expressed in transfected cells; host or cells: COS7
From the text: For PPARy: CV-1 cells were transfected with 3x(rAOX/DR1)-tk-Luc reporter gene and an expression vector for PPARy. For FXR:CV-1 cells were transfected with 3x(IBABP/IRI)-tk-Luc reporter gene and vectors for FXR and RXRα. For LXR:CV-1 cells were transfected with 3x(PLTP/LXRE)-tk-Luc reporter gene with vectors for LXRα or LXRβ. For Nurr1: COS7 cells were transfected with 3xNBRE-tk-luc reporter gene and full length Nurr-1 with or without full-length RXRα plasmid. […] Luciferase data were normalized to co-transfected β-gal activity. Luciferase activity was expressed as percent of maximal activity obtained using specific agonists. Rosiglitazone (PPARy), GW4064 (FXR), T0901317 (LXR).

[2] = CV-1 cells, 20 hours, luciferase activity
[3] = 50 µg i.p. every other day from day 7, n=6
[4] = 200 µg/day, restimulation with PMA/Ionomycin

T5 sequence (P43354 whole entry partner, one chain of several): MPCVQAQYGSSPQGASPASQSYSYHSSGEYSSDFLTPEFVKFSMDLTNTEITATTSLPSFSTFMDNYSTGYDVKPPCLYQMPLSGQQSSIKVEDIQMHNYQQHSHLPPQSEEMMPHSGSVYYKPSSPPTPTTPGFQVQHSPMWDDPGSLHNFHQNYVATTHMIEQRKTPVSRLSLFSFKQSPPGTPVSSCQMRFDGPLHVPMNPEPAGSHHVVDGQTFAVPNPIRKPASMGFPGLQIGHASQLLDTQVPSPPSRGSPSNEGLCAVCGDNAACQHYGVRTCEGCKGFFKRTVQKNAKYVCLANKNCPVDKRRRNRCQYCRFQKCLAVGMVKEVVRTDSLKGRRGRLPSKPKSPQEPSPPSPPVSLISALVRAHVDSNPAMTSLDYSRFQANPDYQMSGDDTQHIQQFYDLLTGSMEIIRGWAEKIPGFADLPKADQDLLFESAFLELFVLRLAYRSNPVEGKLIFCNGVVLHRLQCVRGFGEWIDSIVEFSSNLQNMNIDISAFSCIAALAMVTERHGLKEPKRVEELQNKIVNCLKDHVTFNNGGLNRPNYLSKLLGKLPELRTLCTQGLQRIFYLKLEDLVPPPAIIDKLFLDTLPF
T4 sequence (P10276 183-417 limits assumed, species assumed): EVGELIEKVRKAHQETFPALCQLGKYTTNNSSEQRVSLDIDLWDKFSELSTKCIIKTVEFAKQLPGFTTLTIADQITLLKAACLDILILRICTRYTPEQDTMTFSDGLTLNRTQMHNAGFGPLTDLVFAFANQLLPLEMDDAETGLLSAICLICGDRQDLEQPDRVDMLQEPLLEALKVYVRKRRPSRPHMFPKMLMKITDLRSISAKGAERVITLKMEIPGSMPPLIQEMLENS

CCOC(=O)/C=C(C)/C=C/[C@@H]1C[C@]1(C)c1ccc2c(c1)C(C)(C)CCC2(C)C [IRX4204EE, 3,7-dimethyl-6(S),7(S)-methano,7-[1,1,4,4-tetramethyl-1,2,3,4-tetrahydronaphth-7-yl]2(E),4(E) heptadienoic ethyl ester]
OPC differentiation into oligodendrocytes (EGFP positive cells) [1]: essentially no activity; also recorded: considerably less active | EC50 (RXRβ; [2]): > 1000 nM | EC50 (RXRγ; [2]): > 1000 nM | EC50 (RXRα; [2]): > 1000 nM | symptoms of EAE in SJL mice (EAE in SJL mice): greater efficacy than IRX4204 | EAE disease overall, dose titration (EAE in B6 mice): more active than IRX4204 at each of the doses tested | EC50 (RARα; [2]): > 1000 nM | activation of the Nurr1/RXR heterodimer (Nurr1/RXR heterodimer): very little activity

CC(/C=C/[C@@H]1C[C@]1(C)c1ccc2c(c1)C(C)(C)CCC2(C)C)=C\C(=O)O [IRX4204, 3,7-dimethyl-6(S),7(S)-methano,7-[1,1,4,4-tetramethyl-1,2,3,4-tetrahydronaphth-7-yl]2(E),4(E) heptadienoic acid]
OPC differentiation into oligodendrocytes by concentration ([1]; all tested concentrations but the lowest concentration (1^-6 µM)): significant increase in OPC differentiation | total cell number and pyknotic cells ([1]; compared to controls): did not show any differences | OPC differentiation into oligodendrocytes (EGFP positive cells) [1]: promotes OPC differentiation | EC90 (RXRβ; CV-1, read-out: EC90 with RXRβ): ~1 nM | Efficacy (% of 1 µM IRX4204) RXRγ (RXRγ): 0.09 ±0.01 100 % of 1 µM IRX4204 | EC90 (RXRγ; CV-1, read-out: EC90 with RXRγ): ~0.1 nM | EC90 (RXRα; CV-1): ~0.1 nM | Efficacy (% of 1 µM IRX4204) RXRα (RXRα; [2]): 100 % of 1 µM IRX4204 | symptoms of EAE in SJL mice (EAE in SJL mice): significantly reduces the symptoms of EAE | Death from Disease (EAE in SJL mice; [3]): 0/6 | Disease Incidence (EAE in SJL mice; [3]): 4/6 | Mean Maximum Score (EAE in SJL mice; [3]): 1.5 ± 1.4 | EAE disease overall, dose titration (EAE in B6 mice): significantly less disease overall | CCR6 expression on CD4 T cells, spleen (EAE in B6 mice; 200 µg/day): lowered | co-expression of IFNg and IL-17A by CD4 T cells in CNS (EAE in B6 mice; 200 µg/day): not significantly different between groups | frequency of CD4+ CD25hi cells, spleen (EAE in B6 mice; 200 µg/day): not altered | number of CD4+ CD25hi cells, spleen (EAE in B6 mice; 200 µg/day): reduced | total number of effector and memory CD4 T cells (CD44), spleen (EAE in B6 mice; 200 µg/day): decreased | total number of infiltrating CD4 T cells in the CNS (EAE in B6 mice; 200 µg/day): reduced | total number of recently activated CD4 T cells (CD69 and CD44), spleen (EAE in B6 mice; 200 µg/day): also decreased | IFNγ production by CNS infiltrating lymphocytes (EAE in B6 mice; [4]): significantly reduced | TNF production by CNS infiltrating lymphocytes (EAE in B6 mice; [4]): significantly reduced | EC10 with RARα (RARα): about 300 nM | concentration at which transactivation of the Nurr1/RXR heterodimer is apparent (Nurr1/RXR heterodimer): 100 pM | concentration sufficient to achieve full activation of Nurr1/RXR (Nurr1/RXR heterodimer): 1 nM | activation of the Nurr1/RXR heterodimer (Nurr1/RXR heterodimer): selectively activates
